Results as given in patent publication US20240010635A1, “NOVEL INDIRUBIN DERIVATIVES HAVING HETEROBICYCLIC MOIETIES AND THE USE THEREOF” (priority 2022, published 2024).
Changes are numbered by the printed parent chain.

What was measured:
Assay type in all cases: biochemical
[1] = target: T1, FLT3 D835Y (Homo sapiens, UniProt P36888, D835Y); experiment: ADP-Glo kinase assay, FLT3 D835Y; conditions: recombinant FLT3 (D835Y), 120 min room temperature, read-out: Enzyme activity (IC50, nM) FLT3 D835Y
T1 construct: Recombinant proteins containing the FLT3 and FLT3 (D835Y) domains were purchased from Promega; purchased Promega V4514
T1 sequence (P36888 610-943 D835Y limits assumed): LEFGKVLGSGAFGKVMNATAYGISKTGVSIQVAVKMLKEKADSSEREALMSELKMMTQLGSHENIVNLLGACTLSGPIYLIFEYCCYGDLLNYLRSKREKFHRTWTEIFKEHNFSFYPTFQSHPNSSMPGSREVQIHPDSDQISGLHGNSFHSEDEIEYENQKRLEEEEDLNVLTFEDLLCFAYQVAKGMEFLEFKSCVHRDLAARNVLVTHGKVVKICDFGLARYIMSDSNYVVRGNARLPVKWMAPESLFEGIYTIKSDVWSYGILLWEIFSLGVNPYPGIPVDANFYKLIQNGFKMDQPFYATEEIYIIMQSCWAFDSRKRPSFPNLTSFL
Protocol: FLT3 activity inhibition was measured by ADP-Glo kinase assay (Promega, cat #V9101). ADP-Glo kinase analysis method is an emission ADP detect method which measures kinase activity by quantification of ADP amount produced during kinase reaction and provides uniform high-throughput screening method.
(§1) Analysis performed in two steps. First, after kinase reaction, ADP-Glo™ reagent of equal volume was added to finish kinase reaction, and then the rest ATP was exhausted. Second, Kinase Detection Reagent was added to convert ADP to ATP and newly synthesized ATP was measured by luciferase/luciferin reaction at the same time. Generated light was measured by using luminometer. The measured luminescence amount can be applied to the ATP→ADP standard conversion curve to confirm the correlation with the ADP concentration.
Recombinant proteins containing the FLT3 and FLT3 (D835Y) domains were purchased from Promega (cat #V4064, cat #V4514), respectively. According to the manufacturer's instructions, optimal enzyme, ATP, and substrate concentration were established using the ADP-Glo™ Kinase Assay (Promega, USA). Kinase reaction buffer 5× (200 mM Tris-HCl, pH 7.5, 100 mM MgCl2, 0.5 mg/ml BSA) was diluted and used, and the diluted compound of the present invention (5×, 1 μl), FLT3 enzyme or FLT3/D835Y enzyme (2.5×, 2 μl) and substrate/ATP mixture (2.5×, 2 μl), were mixed sequentially and reacted at room temperature for 120 minutes. Then, ADP-Glo™ Reagent (5 μl) was added and reacted for 40 min at room temperature. Finally, after adding a reagent for detection (Kinase Detection Reagent, 10 μl), reacting at room temperature for 30 min, and then phosphorylation of substrate peptide was measured by measuring luciferase signal (Integration time 0.5-1 second) using SpectraMax ID5 reader (Molecular Devices LLC., San Jose, CA, USA). IC50 was calculated by nonlinear regression using Prism version 5.01 (GrapghPad).

[2] = target: T2, RET WT (Homo sapiens, UniProt P07949); experiment: ADP-Glo kinase assay, RET WT; conditions: recombinant RET wt, 120 min room temperature, read-out: Enzyme activity (IC50, nM) RET WT
T2 construct: Recombinant proteins containing RET wt, RET (M918T) and RET (V804L) domains were purchased from Promega; purchased Promega V8061
T2 sequence (P07949 724-1016 limits assumed): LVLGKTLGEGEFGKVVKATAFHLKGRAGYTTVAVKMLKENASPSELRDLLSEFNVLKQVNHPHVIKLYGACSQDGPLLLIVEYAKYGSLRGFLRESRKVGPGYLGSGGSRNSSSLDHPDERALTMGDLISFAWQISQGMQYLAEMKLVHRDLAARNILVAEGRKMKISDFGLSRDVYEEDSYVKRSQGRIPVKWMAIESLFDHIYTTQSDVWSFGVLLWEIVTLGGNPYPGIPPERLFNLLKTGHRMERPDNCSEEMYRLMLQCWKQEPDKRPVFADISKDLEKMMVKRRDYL
Protocol: as §1
(§2) Recombinant proteins containing RET wt, RET (M918T) and RET (V804L) domains were purchased from Promega (cat #V8061, cat #VA7274, cat #V4473), respectively. According to the manufacturer's instructions, optimal enzyme, ATP, and substrate concentration were established using ADP-Glo™ Kinase Assay (Promega, USA). […] Then, ADP-Glo™ Reagent (5 μl) was added and reacted at room temperature for further 40 min. Lastly, Kinase Detection Reagent (10 μl) was added and reacted for 30 min more at room temperature, and then phosphorylation of substrate peptide was measured by measuring luciferase signal (Integration time 0.5-1 second) using SpectraMax ID5 reader (Molecular Devices LLC., San Jose, CA, USA). IC50 was calculated by nonlinear regression using Prism version 5.01 (GrapghPad).

[3] = target: T3, RET V804L (Homo sapiens, UniProt P07949, V804L); experiment: ADP-Glo kinase assay, RET V804L; conditions: recombinant RET (V804L), 120 min room temperature, read-out: Enzyme activity (IC50, nM) RET V804L
T3 construct: Recombinant proteins containing RET wt, RET (M918T) and RET (V804L) domains were purchased from Promega; purchased Promega V4473
T3 sequence (P07949 724-1016 V804L limits assumed): T2 sequence (P07949 724-1016 limits assumed) with V81L
Protocol: as §1, §2

[4] = target: T4, RET M918T (Homo sapiens, UniProt P07949, M918T); experiment: ADP-Glo kinase assay, RET M918T; conditions: recombinant RET (M918T), 120 min room temperature, read-out: Enzyme activity (IC50, nM) RET M918T
T4 construct: Recombinant proteins containing RET wt, RET (M918T) and RET (V804L) domains were purchased from Promega; purchased Promega VA7274
T4 sequence (P07949 724-1016 M918T limits assumed): T2 sequence (P07949 724-1016 limits assumed) with M195T
Protocol: as §1, §2

Structure (SMILES): O=C1Nc2ccccc2/C1=C1/Nc2ccccc2/C1=N\OCCN1CC2(CNC2)C1 [Example 1, (2Z,3E)-3-((2-(2,6-diazaspiro[3.3]heptan-2-yl)ethoxy)imino)-[2,3′-biindolinylidene]-2′-one]
- IC50 [1]: 0.329 nM
- IC50 [2]: 1.09 nM
- IC50 [3]: 1.3 nM
- IC50 [4]: 0.449 nM

Structure (SMILES): O=C1Nc2ccccc2/C1=C1/Nc2ccccc2/C1=N\OCCN[C@H]1[C@@H]2CNC[C@@H]21 [Example 2, (2Z,3E)-3-((2-((1R,5S,6s)-3-azabicyclo[3.1.0]hexan-6-ylamino)ethoxy)imino)-[2,3′-biindolinylidene]-2′-one]
- IC50 [1]: 0.524 nM
- IC50 [2]: 0.964 nM
- IC50 [3]: 0.553 nM
- IC50 [4]: 1.25 nM

Structure (SMILES): N[C@@H]1[C@H]2CN(CCO/N=C3/C(=C4/C(=O)Nc5ccccc54)Nc4ccccc43)C[C@@H]12 [Example 3, (2Z,3E)-3-((2-((1R,5S,6s)-6-amino-3-azabicyclo[3.1.0]hexan-3-yl)ethoxy)imino)-[2,3′-biindolinylidene]-2′-one]
- IC50 [1]: 0.303 nM
- IC50 [2]: 0.969 nM
- IC50 [3]: 1.27 nM
- IC50 [4]: 1.02 nM

Structure (SMILES): O=C1Nc2ccccc2/C1=C1/Nc2ccccc2/C1=N\OCCN1C[C@H]2C[C@@H]1CN2 [Example 4, (2Z,3E)-3-((2-((1R,4R)-2,5-diazabicyclo[2.2.1]heptan-2-yl)ethoxy)imino)-[2,3′-biindolinylidene]-2′-one]
- IC50 [1]: 0.216 nM
- IC50 [2]: 0.423 nM
- IC50 [3]: 0.212 nM
- IC50 [4]: 0.348 nM

Structure (SMILES): O=C1Nc2ccccc2/C1=C1/Nc2ccccc2/C1=N\OCCN1C[C@@H]2C[C@H]1CN2 [Example 5, (2Z,3E)-3-((2-((1S,4S)-2,5-diazabicyclo[2.2.1]heptan-2-yl)ethoxy)imino)-[2,3′-biindolinylidene]-2′-one]
- IC50 [1]: 0.135 nM
- IC50 [2]: 1.85 nM
- IC50 [3]: 0.851 nM
- IC50 [4]: 0.771 nM

Structure (SMILES): O=C1Nc2ccc(F)cc2/C1=C1/Nc2ccccc2/C1=N\OCCN1CC2(CNC2)C1 [Example 6, (2Z,3E)-3-((2-(2,6-diazaspiro[3.3]heptan-2-yl)ethoxy)imino)-5′-fluoro-[2,3′-biindolinylidene]-2′-one]
- IC50 [1]: 0.488 nM
- IC50 [2]: 0.668 nM
- IC50 [3]: 0.797 nM
- IC50 [4]: 0.67 nM

Structure (SMILES): O=C1Nc2ccc(F)cc2/C1=C1/Nc2ccccc2/C1=N\OCCN[C@H]1[C@@H]2CNC[C@@H]21 [Example 7, (2Z,3E)-3-((2-((1R,5S,6s)-3-azabicyclo[3.1.0]hexan-6-ylamino)ethoxy)imino)-5′-fluoro-[2,3′-biindolinylidene]-2′-one]
- IC50 [1]: 0.37 nM
- IC50 [2]: 1.03 nM
- IC50 [3]: 0.742 nM
- IC50 [4]: 0.666 nM

Structure (SMILES): N[C@@H]1[C@H]2CN(CCO/N=C3/C(=C4/C(=O)Nc5ccc(F)cc54)Nc4ccccc43)C[C@@H]12 [Example 8, (2Z,3E)-3-((2-((1R,5S,6s)-6-amino-3-azabicyclo[3.1.0]hexan-3-yl)ethoxy)imino)-5′-fluoro-[2,3′-biindolinylidene]-2′-one]
- IC50 [1]: 0.303 nM
- IC50 [2]: 0.441 nM
- IC50 [3]: 0.54 nM
- IC50 [4]: 0.344 nM

Structure (SMILES): O=C1Nc2ccc(F)cc2/C1=C1/Nc2ccccc2/C1=N\OCCN1C[C@H]2C[C@@H]1CN2 [Example 9, (2Z,3E)-3-((2-((1R,4R)-2,5-diazabicyclo[2.2.1]heptan-2-yl)ethoxy)imino)-5′-fluoro-[2,3′-biindolinylidene]-2′-one]
- IC50 [1]: 0.667 nM
- IC50 [2]: 0.49 nM
- IC50 [3]: 0.785 nM
- IC50 [4]: 1.02 nM

Structure (SMILES): O=C1Nc2ccc(F)cc2/C1=C1/Nc2ccccc2/C1=N\OCCN1C[C@@H]2C[C@H]1CN2 [Example 10, (2Z,3E)-3-((2-((1S,4S)-2,5-diazabicyclo[2.2.1]heptan-2-yl)ethoxy)imino)-5′-fluoro-[2,3′-biindolinylidene]-2′-one]
- IC50 [1]: 0.428 nM
- IC50 [2]: 0.815 nM
- IC50 [3]: 0.511 nM
- IC50 [4]: 0.617 nM

Structure (SMILES): O=C1Nc2ccc(Cl)cc2/C1=C1/Nc2ccccc2/C1=N\OCCN1C[C@H]2C[C@@H]1CN2 [Example 11, (2Z,3E)-3-((2-((1R,4R)-2,5-diazabicyclo[2.2.1]heptan-2-yl)ethoxy)imino)-5′-chloro-[2,3′-biindolinylidene]-2′-one]
- IC50 [1]: 0.553 nM
- IC50 [2]: 1.72 nM
- IC50 [3]: 1.02 nM
- IC50 [4]: 1.27 nM

Structure (SMILES): O=C1Nc2ccc(Br)cc2/C1=C1/Nc2ccccc2/C1=N\OCCN1C[C@H]2C[C@@H]1CN2 [Example 13, (2Z,3E)-3-((2-((1R,4R)-2,5-diazabicyclo[2.2.1]heptan-2-yl)ethoxy)imino)-5′-bromo-[2,3′-biindolinylidene]-2′-one]
- IC50 [1]: 0.686 nM
- IC50 [2]: 1.31 nM
- IC50 [3]: 0.376 nM
- IC50 [4]: 1.03 nM

Structure (SMILES): O=C1Nc2ccccc2/C1=C1/Nc2ccccc2/C1=N\OCC(=O)N1CC2(CNC2)C1 [Example 15, (2Z,3E)-3-((2-oxo-2-(2,6-diazaspiro[3.3]heptan-2-yl)ethoxy)imino)-[2,3′-biindolinylidene]-2′-one]
- IC50 [1]: 0.798 nM
- IC50 [2]: 0.664 nM
- IC50 [3]: 0.37 nM
- IC50 [4]: 1.08 nM

Structure (SMILES): O=C(CO/N=C1/C(=C2/C(=O)Nc3ccccc32)Nc2ccccc21)N[C@H]1[C@@H]2CNC[C@@H]21 [Example 16, N-((1R,5S,6s)-3-azabicyclo[3.1.0]hexan-6-yl)-2-(((E)-((Z)-2′-oxo-[2,3′-biindolinylidene]-3-ylidene)amino)oxy)acetamide]
- IC50 [1]: 0.661 nM
- IC50 [2]: 0.873 nM
- IC50 [3]: 0.472 nM
- IC50 [4]: 1.19 nM

Structure (SMILES): O=C1Nc2ccccc2/C1=C1/Nc2ccccc2/C1=N\OCC(=O)N1C[C@H]2C[C@@H]1CN2 [Example 17, (2Z,3E)-3-((2-((1R,4R)-2,5-diazabicyclo[2.2.1]heptan-2-yl)-2-oxoethoxy)imino)-[2,3′-biindolinylidene]-2′-one]
- IC50 [1]: 0.552 nM
- IC50 [2]: 1.53 nM
- IC50 [3]: 0.904 nM
- IC50 [4]: 1.44 nM
